Laboratory results taken from PubChem BioAssay AID192 (DTP/NCI, 2004).
Where “and” joins values, the source holds several entries; their conditions need not be identical. Equal values may be shown once. Toxic doses and inconclusive results are not listed.

Test system: BDF1 mice, B16 melanoma ip, median survival T/C
Assay: NCI In Vivo Anticancer Drug Screen. Data for tumor model B16 Melanoma (intraperitoneal) in B6D2F1 (BDF1) mice
Settings: endpoint: median survival time, higher = longer survival
Method in brief: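 Tumor-bearing mice received test compound or vehicle. Survival or tumor size was then measured in both groups. The treated-group figure was divided by the control-group figure.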

[1] = dose: 1.0 mg/kg/injection, schedule: Q01DX009 (ip), vehicle: saline
[2] = dose: 25.0 mg/kg/injection, schedule: Q01DX009 (ip), vehicle: saline with Tween-80
[3] = dose: 50.0 mg/kg/injection, schedule: Q01DX009 (ip), vehicle: saline with Tween-80
[4] = dose: 100.0 mg/kg/injection, schedule: Q01DX009 (ip), vehicle: saline with Tween-80
[5] = dose: 200.0 mg/kg/injection, schedule: Q01DX009 (ip), vehicle: saline with Tween-80
[6] = dose: 400.0 mg/kg/injection, schedule: Q01DX009 (ip), vehicle: saline with Tween-80

## CO[C@H](C(=O)[C@@H](O)[C@@H](C)O)[C@@H]1Cc2cc3cc(OC4CC(OC5CC(O)C(O)C(C)O5)C(O)C(C)O4)c(C)c(O)c3c(O)c2C(=O)[C@H]1OC1CC(OC2CC(OC3CC(C)(O)C(O)C(C)O3)C(O)C(C)O2)C(O)C(C)O1 (stereo partly drawn)
dose: 0.02 mg/kg/injection, schedule: Q01DX009 (ip), vehicle: water
  T/C: 103 % of control
dose: 0.05 mg/kg/injection, schedule: Q01DX009 (ip), vehicle: water
  T/C: 106 % of control
dose: 0.06 mg/kg/injection, schedule: Q01DX009 (ip), vehicle: saline
  T/C: 101 % of control
dose: 0.1 mg/kg/injection, schedule: Q01DX009 (ip), vehicle: water
  T/C: 100 % of control and 103 % of control
dose: 0.12 mg/kg/injection, schedule: Q01DX009 (ip), vehicle: saline
  T/C: 101 % of control
dose: 0.12 mg/kg/injection, schedule: Q01DX009 (ip), vehicle: water
  T/C: 96 % of control
dose: 0.13 mg/kg/injection, schedule: Q01DX009 (ip), vehicle: clinical formulation
  T/C: 100 % of control
dose: 0.13 mg/kg/injection, schedule: Q01DX009 (ip), vehicle: saline
  T/C: 100 % of control and 109 % of control
dose: 0.13 mg/kg/injection, schedule: Q01DX009 (ip), vehicle: water
  T/C: 94 % of control
dose: 0.2 mg/kg/injection, schedule: Q01DX009 (ip), vehicle: water
  T/C: 111 % of control
dose: 0.25 mg/kg/injection, schedule: Q01DX009 (ip), vehicle: clinical formulation
  T/C: 102 % of control
dose: 0.25 mg/kg/injection, schedule: Q01DX009 (ip), vehicle: saline
  T/C: 100 % of control and 104 % of control and 111 % of control
dose: 0.25 mg/kg/injection, schedule: Q01DX009 (ip), vehicle: water
  T/C: 98 % of control
dose: 0.4 mg/kg/injection, schedule: Q01DX009 (ip), vehicle: water
  T/C: 111 % of control
dose: 0.5 mg/kg/injection, schedule: Q01DX009 (ip), vehicle: clinical formulation
  T/C: 100 % of control
dose: 0.5 mg/kg/injection, schedule: Q01DX009 (ip), vehicle: saline
  T/C: 97 % of control and 105 % of control and 121 % of control
dose: 0.5 mg/kg/injection, schedule: Q01DX009 (ip), vehicle: water
  T/C: 98 % of control
dose: 0.6 mg/kg/injection, schedule: Q01DX009 (ip), vehicle: water
  T/C: 102 % of control
dose: 0.75 mg/kg/injection, schedule: Q01DX009 (ip), vehicle: saline
  T/C: 104 % of control
dose: 1.0 mg/kg/injection, schedule: Q01DX009 (ip), vehicle: clinical formulation
  T/C: 105 % of control
[1]
  T/C: 97 % of control and 106 % of control and 109 % of control
dose: 62.0 micrograms/kg/injection, schedule: Q01DX009 (ip), vehicle: saline
  T/C: 98 % of control
dose: 125.0 micrograms/kg/injection, schedule: Q01DX009 (ip), vehicle: saline
  T/C: 105 % of control
dose: 125.0 micrograms/kg/injection, schedule: Q01DX009 (ip), vehicle: water
  T/C: 94 % of control
dose: 250.0 micrograms/kg/injection, schedule: Q01DX009 (ip), vehicle: saline
  T/C: 119 % of control
dose: 500.0 micrograms/kg/injection, schedule: Q01DX009 (ip), vehicle: saline
  T/C: 111 % of control
dose: 500.0 micrograms/kg/injection, schedule: Q01DX009 (ip), vehicle: water
  T/C: 110 % of control
dose: 1000.0 micrograms/kg/injection, schedule: Q01DX009 (ip), vehicle: saline
  T/C: 115 % of control
dose: 1000.0 micrograms/kg/injection, schedule: Q01DX009 (ip), vehicle: water
  T/C: 109 % of control

## CCCC(=O)NC1=C(N2CC2)C(=O)C(NC(=O)CCC)=C(N2CC2)C1=O
[1]
  T/C: 86 % of control
dose: 2.0 mg/kg/injection, schedule: Q01DX009 (ip), vehicle: saline
  T/C: 118 % of control

## Cc1cc(Cl)ccc1NC(=O)c1cccc(C(=O)Nc2ccc(Cl)cc2C)c1
dose: 100.0 mg/kg/injection, schedule: Q01DX009 (ip), vehicle: Klucel (hydroxypropylcellulose) (HPC)
  T/C: 100 % of control
dose: 200.0 mg/kg/injection, schedule: Q01DX009 (ip), vehicle: Klucel (hydroxypropylcellulose) (HPC)
  T/C: 100 % of control
dose: 400.0 mg/kg/injection, schedule: Q01DX009 (ip), vehicle: Klucel (hydroxypropylcellulose) (HPC)
  T/C: 96 % of control

## COc1ccc(C(Nc2ccccc2)C(=O)c2ccccc2)cc1 (stereo not drawn)
dose: 3.12 mg/kg/injection, schedule: Q01DX009 (ip), vehicle: Klucel (hydroxypropylcellulose) (HPC)
  T/C: 90 % of control
dose: 6.25 mg/kg/injection, schedule: Q01DX009 (ip), vehicle: Klucel (hydroxypropylcellulose) (HPC)
  T/C: 106 % of control
dose: 12.5 mg/kg/injection, schedule: Q01DX009 (ip), vehicle: Klucel (hydroxypropylcellulose) (HPC)
  T/C: 89 % of control
dose: 25.0 mg/kg/injection, schedule: Q01DX009 (ip), vehicle: Klucel (hydroxypropylcellulose) (HPC)
  T/C: 89 % of control and 90 % of control

## C/C=C/C1=CC(=O)C(O)C1O (stereo not drawn)
dose: 25.0 mg/kg/injection, schedule: Q01DX009 (ip), vehicle: water
  T/C: 92 % of control
dose: 50.0 mg/kg/injection, schedule: Q01DX009 (ip), vehicle: water
  T/C: 117 % of control
dose: 100.0 mg/kg/injection, schedule: Q01DX009 (ip), vehicle: water
  T/C: 122 % of control
dose: 200.0 mg/kg/injection, schedule: Q01DX009 (ip), vehicle: water
  T/C: 122 % of control

## O=[N+]([O-])c1ccc(NCc2ccccc2)nc1
[2]
  T/C: 100 % of control
[3]
  T/C: 100 % of control
[4]
  T/C: 121 % of control
[5]
  T/C: 105 % of control

## Cn1nnnc1N/N=C/c1ccccc1
[4]
  T/C: 93 % of control
[5]
  T/C: 95 % of control
[6]
  T/C: 90 % of control

## NC(=O)CN1C(=O)c2ccccc2C1=O
[4]
  T/C: 97 % of control
[5]
  T/C: 104 % of control
[6]
  T/C: 97 % of control

## Cc1cc(=O)n2c3c(cc(C#N)cc13)OC2
dose: 100.0 mg/kg/injection, schedule: Q04DX003 (ip), vehicle: Klucel (hydroxypropylcellulose) (HPC)
  T/C: 92 % of control
dose: 200.0 mg/kg/injection, schedule: Q04DX003 (ip), vehicle: Klucel (hydroxypropylcellulose) (HPC)
  T/C: 95 % of control
dose: 400.0 mg/kg/injection, schedule: Q04DX003 (ip), vehicle: Klucel (hydroxypropylcellulose) (HPC)
  T/C: 92 % of control

## Cc1c(Cl)cccc1NC(=O)NCCC(C)C
dose: 12.5 mg/kg/injection, schedule: Q01DX009 (ip), vehicle: saline with Tween-80
  T/C: 103 % of control
[2]
  T/C: 100 % of control
[3]
  T/C: 96 % of control

## O=N[O-].[Co].[NH2-].[NH2-].[NH2-].[NH2-].[NH2-]
dose: 12.5 mg/kg/injection, schedule: Q01DX009 (ip), vehicle: saline
  T/C: 90 % of control
dose: 12.5 mg/kg/injection, schedule: Q04DX003 (ip), vehicle: saline
  T/C: 107 % of control
dose: 25.0 mg/kg/injection, schedule: Q01DX009 (ip), vehicle: saline
  T/C: 97 % of control
dose: 25.0 mg/kg/injection, schedule: Q04DX003 (ip), vehicle: saline
  T/C: 105 % of control
dose: 50.0 mg/kg/injection, schedule: Q01DX009 (ip), vehicle: saline
  T/C: 100 % of control
dose: 50.0 mg/kg/injection, schedule: Q04DX003 (ip), vehicle: saline
  T/C: 100 % of control

## NC(Cc1ccc(O)cc1)C(=O)OCc1ccccc1 (stereo not drawn)
[4]
  T/C: 102 % of control
[5]
  T/C: 114 % of control
[6]
  T/C: 98 % of control

## CCCCCCCC(=O)OCC(=O)[C@]1(O)Cc2c(O)c3c(c(O)c2[C@@H](OC2CC(N)C(O)C(C)O2)C1)C(=O)c1c(OC)cccc1C3=O (stereo partly drawn)
dose: 0.25 mg/kg/injection, schedule: Q01DX009 (ip), vehicle: saline with Tween-80
  T/C: 176 % of control
dose: 0.5 mg/kg/injection, schedule: Q01DX009 (ip), vehicle: saline with Tween-80
  T/C: 222 % of control
dose: 1.0 mg/kg/injection, schedule: Q01DX009 (ip), vehicle: saline with Tween-80
  T/C: 151 % of control and 212 % of control
dose: 1.25 mg/kg/injection, schedule: Q01DX001 (ip), vehicle: water
  T/C: 170 % of control
dose: 2.0 mg/kg/injection, schedule: Q01DX009 (ip), vehicle: saline with Tween-80
  T/C: 150 % of control and 274 % of control
dose: 2.5 mg/kg/injection, schedule: Q01DX001 (ip), vehicle: water
  T/C: 117 % of control (2×) and 214 % of control
dose: 5.0 mg/kg/injection, schedule: Q01DX001 (ip), vehicle: water
  T/C: 97 % of control and 252 % of control
dose: 10.0 mg/kg/injection, schedule: Q01DX001 (ip), vehicle: water
  T/C: 227 % of control
dose: 20.0 mg/kg/injection, schedule: Q01DX001 (ip), vehicle: water
  T/C: 122 % of control
dose: 1440.0 micrograms/kg/injection, schedule: Q01DX004 (ip), vehicle: other
  T/C: 115 % of control
dose: 2400.0 micrograms/kg/injection, schedule: Q01DX004 (ip), vehicle: other
  T/C: 110 % of control
dose: 4000.0 micrograms/kg/injection, schedule: Q01DX004 (ip), vehicle: other
  T/C: 122 % of control

## CC1(C)N=C(N)N=C(N)N1c1ccc(CCCCc2cccc(S(=O)(=O)F)c2)c(Cl)c1
dose: 8.0 mg/kg/injection, schedule: Q01DX009 (ip), vehicle: saline
  T/C: 108 % of control
dose: 12.0 mg/kg/injection, schedule: Q01DX009 (ip), vehicle: saline
  T/C: 116 % of control
dose: 18.0 mg/kg/injection, schedule: Q01DX009 (ip), vehicle: saline
  T/C: 118 % of control
dose: 27.0 mg/kg/injection, schedule: Q01DX009 (ip), vehicle: saline
  T/C: 124 % of control
